# Data published in ChEMBL document CHEMBL1152509, “ssDNA aptamers that recognize diclofenac and 2-anilinophenylacetic acid” (Bioorg Med Chem, 2009).
# pKd: −log10 of the molar value. Calls of active or inactive are those of the source. The rule behind the calls is not given here.
# Columns and labels:
# Format in all cases: nucleic-acid assay
# Nucleic Acid [1] = experiment: Binding affinity to D3 ssDNA aptamer
# Nucleic Acid [2] = experiment: Binding affinity to D16 ssDNA aptamer
# Nucleic Acid [3] = experiment: Binding affinity to D22 ssDNA aptamer
# Nucleic Acid [4] = experiment: Binding affinity to D10/DA24 ssDNA aptamer
Activity (Nucleic Acid [1]),Activity (Nucleic Acid [2]),Activity (Nucleic Acid [3]),pKd (Nucleic Acid [1]),pKd (Nucleic Acid [2]),pKd (Nucleic Acid [4]),pKd (Nucleic Acid [3]),SMILES
inactive,Active,Active,,,,,O=C(O)Cc1ccccc1Nc1ccccc1
,,,7.37,6.83,7.00,6.78,O=C(O)Cc1ccccc1Nc1c(Cl)cccc1Cl [DICLOFENAC]
